Measured values published in publication PMC6815936, “A Pan-Cyclophilin Inhibitor, CRV431, Decreases Fibrosis and Tumor Development in Chronic Liver Disease Models” (The Journal of Pharmacology and Experimental Therapeutics, 2019).
pIC50, pKi: −log10 of the molar value. Where two headings read alike, the source gives them in different places. Square brackets hold non-standard residues; d marks the D form. Peptide text beside a SMILES is read from it. NMeThr(4R-Me,4-(CH2)6NHAc) = CN[C@H](C(=O)O)[C@H](O)[C@H](C)CCCCCCNC(C)=O; NMeL = CN[C@@H](CC(C)C)C(=O)O; NMeV = CN[C@H](C(=O)O)C(C)C; dNMeA = CN[C@H](C)C(=O)O; Abu = CC[C@H](N)C(=O)O

Tests used:
[1] = target: T1, recombinant Cyp A (PPIA) (Homo sapiens, UniProt P62937); assay: Cyclophilin isomerase assay, Cyp A; format: biochemical
T1 construct: purchased R&D Systems 3589-CAB
Method: (§1) Cyclophilin isomerase activity was measured with an assay described by [Kofron et al. (1991)] with adaptations to 96-well plates. In this assay cyclophilins catalyze cis-to-trans isomerization of a proline peptide bond in a nitroanalide-coupled peptide substrate followed by cleavage of the trans-conformer peptide by α-chymotrypsin, release of the p-nitroaniline chromogen, and quantitation of p-nitroaniline by absorbance at 410 nm. All solutions were pre-equilibrated, and all assays were conducted at 4°C. Plates were preloaded with 5 µl peptide solution consisting of N-succinyl-alanine-alanine-proline-phenylalanine-p-nitroanilide (S7388; Sigma-Aldrich) and 400 mM lithium chloride (310468; Sigma-Aldrich) in anhydrous trifluoroethanol (T63002; Sigma-Aldrich). […] Absorbance measurements with a BMG Polarstar Galaxy plate reader were begun immediately and made at 6-second intervals for 6 minutes. Reaction curves were represented by increases in optical density 410 nm as a function of reaction time. For Ki determinations, initial reaction velocities were obtained from the reaction curves and plotted relative to substrate concentration, and the curves were fitted to the enzyme competitive inhibition model (GraphPad Prism) to derive Ki, maximum velocity (Vmax), and Michaelis constant values. For IC50 determinations, the reaction curves were fitted to one-phase exponential association regressions to obtain first-order rate constants.

[2] = target: T2, recombinant Cyp B (PPIB) (Homo sapiens, UniProt P23284); assay: Cyclophilin isomerase assay, Cyp B; format: biochemical
T2 construct: purchased Cedarlane Laboratories CLENZ313
Method: as §1, with “For IC50 determinations, the reaction curves were fitted to one-phase exponential association regressions to obtain first-order rate constants.” left out

[3] = target: T3, recombinant cyclophilin G (PPIG) (Homo sapiens, UniProt Q13427); assay: Cyclophilin isomerase assay, cyclophilin G; format: biochemical
T3 construct: purchased Cedarlane Laboratories CLENZ463
Method: as §1, with “For IC50 determinations, the reaction curves were fitted to one-phase exponential association regressions to obtain first-order rate constants.” left out

[4] = test system: IL-2 promoter luciferase reporter, Jurkat cells; assay: IL-2 luciferase reporter assay in Jurkat cells; format: cell-based, human; conditions: for pIC50: 18 hours, read-out: IL-2–Luc IC50; for IL-2–Luc IC50 Fold Difference: CRV431 vs CsA
Method: The luciferase reporter assays employed Jurkat cells stably transfected with gene constructs consisting of a luciferase gene plus human nuclear factor of activated T cells (NFAT) or interleukin-2 (IL-2) promoter elements (J1621 and J1651; Promega). The NFAT construct contained a DNA binding site only for NFAT, whereas the IL-2 construct contained binding sites for NFAT, nuclear factor κ-light-chain-enhancer of activated B cells, and activating protein-1 transcription factors. Cells were cultured in 96-well plates at 100,000 cells/well in RPMI 1640 medium (11875-093; Thermo Fisher) supplemented with 5% FBS (12483020; Thermo Fisher). Cells were activated either by precoating high protein-binding plates with 3 µg/ml anti-CD3 (UCHT clone) and anti-CD28 (CD28.2 clone) (BioLegend LEAF antibodies) or by adding phorbol myristate acetate (PMA; P8139; Sigma-Aldrich) to 15 ng/ml and A23187 ionophore (C7522; Sigma-Aldrich) to 0.75 µM. […] Cells were harvested after 18 hours of incubation, and luciferase was quantified with Promega Bio-Glo reagent (G7940; Promega) and measurement with a luminescence plate reader. Data were normalized to DMSO controls (100% stimulation) and to wells without antibody or PMA plus A23187 stimulation.

[5] = target: T4, MATE-1 (Homo sapiens, UniProt Q96FL8); assay: Drug transporter inhibition, MATE-1; format: in vitro ADME; conditions: MATE-1, HEK293
T4 construct: expressed in transfected cells
Method: Inhibition of all other transporters was assessed by measuring substrate accumulation in cells recombinantly expressing the transporter. Known inhibitors of each transporter were used as positive controls for the assays. […] Specific, ATP-dependent uptake was determined by subtracting uptake in negative control vesicles and cells not expressing the transporters, and secondly by subtracting uptake in the absence of ATP in the assays. Specific, ATP-dependent uptake was plotted as a function of CRV431 concentrations and fitted to nonlinear regressions to obtain IC50 values.

[6] = test system: NASH model in C57BL/6 mice; assay: Mouse NASH model (streptozotocin plus high-fat diet); format: in vivo; design: NAS score / Steatosis score / Inflammation score / Ballooning score: scale not given here
Method: NASH was initiated in 2-day-old C57BL/6J male mice by intraperitoneal injection with 200 μg streptozotocin (S0130; Sigma-Aldrich) to disrupt pancreatic β cells, induce diabetes, and promote adiposity in the liver. Mice were weaned at 3 weeks of age and begun on a high-fat diet with 60%kcal fat (D12492N; Research Diets) for the duration of the studies. Additionally, mice with a regular diet (D12450KN; Research Diets) and without streptozotocin were included as negative controls. CRV431 was dissolved in a self-microemulsifying drug vehicle and then diluted with PBS and administered daily by oral gavage at 50 mg/kg per day. The start time and duration of vehicle and CRV431 treatments varied depending on the study.
Blood and livers were collected at the end of the NASH and CCl4 studies. In some studies, serum or plasma was isolated from freshly-collected blood, whereas in other studies blood was frozen for later analysis of CRV431 concentration. Livers were immersion-fixed in zinc-formalin and paraffin-embedded for histologic processing. Liver sections were stained with hematoxylin and eosin for assessment of inflammation, ballooning, and steatosis, and with sirius red for assessment of collagen I and III (fibrosis). Sirius red staining was quantified by blinded analysis in one section per liver using ImageJ software. Scoring of steatosis, ballooning, and inflammation (sum of portal and lobular inflammation) in liver sections was based on criteria and training by a board-certified pathologist.
Liver tumors were quantified in freshly collected livers at sacrifice in one NASH study ending at 30 weeks of age. Liver tumors were counted and their diameters measured with a ruler and classified as small (>0.1 cm diameter, but not exceeding 0.5 cm), medium (0.5–1 cm diameter), or large (>1 cm diameter).

[7] = rat, in vivo, po
Source text: Male and female Sprague–Dawley rats and male C57BL/6 mice from the carbon tetrachloride and NASH studies were used to evaluate CRV431 pharmacokinetics and distribution. […] Terminal whole blood and livers were collected and frozen until drug extraction. Liver samples were homogenized in PBS or 1% formic acid (0.1 g–0.4 g liver sample per ml solvent) with bead-based homogenizers (TissueLyser or Beadruptor). […] Sample and standard compounds were extracted from blood and liver homogenates using a zinc sulfate/methanol precipitation method and quantified by liquid chromatography–electrospray ionization–mass spectrometry, as previously described ([Trepanier et al., 2018]). Liver CRV431 concentrations were normalized to the masses of the liver samples.
CRV431 pharmacokinetics in rats. […] Whole–blood concentrations of the two compounds were determined at the indicated time points. […] Means and S.D. shown.

[8] = CRV431 blood and liver exposures across mouse and rat studies; conditions: daily oral dosing, mice and rats
Source text: Male and female Sprague–Dawley rats and male C57BL/6 mice from the carbon tetrachloride and NASH studies were used to evaluate CRV431 pharmacokinetics and distribution. […] Terminal whole blood and livers were collected and frozen until drug extraction. Liver samples were homogenized in PBS or 1% formic acid (0.1 g–0.4 g liver sample per ml solvent) with bead-based homogenizers (TissueLyser or Beadruptor). […] Liver CRV431 concentrations were normalized to the masses of the liver samples.

[9] = Week 3–14 Treatment, 50 mg/kg per day oral
[10] = Week 8–14 Treatment, 50 mg/kg per day oral
[11] = Week 20–30 Treatment, 50 mg/kg per day oral

T1 sequence (P62937 whole entry): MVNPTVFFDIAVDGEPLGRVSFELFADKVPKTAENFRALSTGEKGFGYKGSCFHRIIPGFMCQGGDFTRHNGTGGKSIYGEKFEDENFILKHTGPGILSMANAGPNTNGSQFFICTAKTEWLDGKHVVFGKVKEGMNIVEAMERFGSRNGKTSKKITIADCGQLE
T3 sequence (Q13427 whole entry): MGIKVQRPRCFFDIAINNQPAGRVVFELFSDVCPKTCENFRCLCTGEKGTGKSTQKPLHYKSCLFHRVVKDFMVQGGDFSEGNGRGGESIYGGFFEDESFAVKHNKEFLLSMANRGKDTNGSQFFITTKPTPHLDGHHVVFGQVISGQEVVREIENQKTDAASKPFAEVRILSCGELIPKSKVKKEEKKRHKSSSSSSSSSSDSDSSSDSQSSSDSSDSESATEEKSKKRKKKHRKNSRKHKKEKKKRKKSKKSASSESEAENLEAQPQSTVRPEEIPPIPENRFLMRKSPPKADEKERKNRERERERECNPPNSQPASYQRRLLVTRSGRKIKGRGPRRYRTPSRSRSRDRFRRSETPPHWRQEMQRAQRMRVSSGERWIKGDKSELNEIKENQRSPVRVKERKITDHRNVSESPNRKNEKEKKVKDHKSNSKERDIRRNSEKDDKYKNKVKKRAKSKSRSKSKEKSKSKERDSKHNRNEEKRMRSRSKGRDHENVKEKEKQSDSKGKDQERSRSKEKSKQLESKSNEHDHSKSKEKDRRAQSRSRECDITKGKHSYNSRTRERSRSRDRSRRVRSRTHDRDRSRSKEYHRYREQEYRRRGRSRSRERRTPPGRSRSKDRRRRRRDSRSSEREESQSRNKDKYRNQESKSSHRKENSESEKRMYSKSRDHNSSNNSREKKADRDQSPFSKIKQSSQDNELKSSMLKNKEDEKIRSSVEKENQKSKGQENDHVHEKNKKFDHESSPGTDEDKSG
T2 sequence (P23284 34-216): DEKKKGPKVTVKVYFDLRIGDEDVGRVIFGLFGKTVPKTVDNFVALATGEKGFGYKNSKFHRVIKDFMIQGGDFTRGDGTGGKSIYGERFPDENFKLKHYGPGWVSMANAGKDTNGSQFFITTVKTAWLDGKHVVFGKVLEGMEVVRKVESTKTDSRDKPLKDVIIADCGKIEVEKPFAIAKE
T4 sequence (Q96FL8 whole entry): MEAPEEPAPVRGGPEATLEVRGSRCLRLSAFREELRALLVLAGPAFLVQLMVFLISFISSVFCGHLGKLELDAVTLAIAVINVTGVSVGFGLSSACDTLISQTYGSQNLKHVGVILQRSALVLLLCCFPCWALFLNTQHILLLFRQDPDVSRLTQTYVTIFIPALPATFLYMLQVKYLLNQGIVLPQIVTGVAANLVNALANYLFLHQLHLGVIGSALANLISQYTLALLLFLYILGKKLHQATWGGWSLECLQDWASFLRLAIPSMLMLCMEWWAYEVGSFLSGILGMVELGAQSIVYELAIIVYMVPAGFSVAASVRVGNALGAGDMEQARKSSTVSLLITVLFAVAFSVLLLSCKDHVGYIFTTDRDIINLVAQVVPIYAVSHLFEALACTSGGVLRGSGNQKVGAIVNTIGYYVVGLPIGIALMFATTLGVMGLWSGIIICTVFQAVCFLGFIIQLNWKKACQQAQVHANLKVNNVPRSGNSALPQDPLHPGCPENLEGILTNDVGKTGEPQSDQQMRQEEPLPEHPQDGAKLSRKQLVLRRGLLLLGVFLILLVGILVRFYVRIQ

## CC[C@@H]1NC(=O)[C@H]([C@H](O)[C@H](C)CCCCCCNC(C)=O)N(C)C(=O)[C@H](C(C)C)N(C)C(=O)[C@H](CC(C)C)N(C)C(=O)[C@H](CC(C)C)N(C)C(=O)[C@@H](C)NC(=O)[C@H](C)NC(=O)[C@H](CC(C)C)N(C)C(=O)[C@H](C(C)C)NC(=O)[C@H](CC(C)C)N(C)C(=O)[C@@H](C)N(C)C1=O [CRV431] (cyclo(A[dA][NMeL][NMeL][NMeV][NMeThr(4R-Me,4-(CH2)6NHAc)][Abu][dNMeA][NMeL]V[NMeL]))
[1]
  Maximum enzyme velocity (Vmax) in the presence of compound: 5.3 µmol/s per nanomole Cyp A
[1]; CsA IC50 vs CRV431 IC50, PPIA
  IC50 Fold Difference: 10.2
[1]; PPIA (Cyp A), one peptide substrate concentration
  pIC50: 8.60
[1]; competitive enzyme inhibition model, multiple substrate concentrations, 4°C, read-out: Ki toward cyclophilin A
  pKi: 8.89
[1]; ratio of Ki values
  fold higher potency of CRV431 vs CsA (Ki): 13 fold
[2]; CsA IC50 vs CRV431 IC50, PPIB
  IC50 Fold Difference: 3.7
[2]; PPIB (Cyp B), one peptide substrate concentration
  pIC50: 8.51
[3]; CsA IC50 vs CRV431 IC50, PPIG
  IC50 Fold Difference: 3.8
[3]; PPIG (Cyp G), one peptide substrate concentration
  pIC50: 8.14
[4]; CD3 + CD28 antibodies stimulation
  pIC50: 6.51
[4]; CD3 + CD28 antibodies
  IL-2–Luc IC50 Fold Difference: 34.6
[4]; PMA + A23187
  IL-2–Luc IC50 Fold Difference: 36.9
[4]; PMA + A23187 stimulation
  pIC50: 6.52
[4]; ratio of CRV431 and CsA IC50
  times less potent than CsA on Jurkat–IL-2 cells: approximately 35 times
[5]
  CRV431 Inhibitory Potency vs. CsA: Same (no inhibition)
[6]; [9]
  Ballooning score: 0.9 ± 0.6
  Blood glucose: 319 ± 79
  Body weight: 33.5 ± 5.2 (P < 0.05)
  Inflammation score: 1.5 ± 0.7
  Liver weight: 1.28 ± 0.28
  NAS score: 3.7 ± 2.2 (P < 0.05)
  Sirius red %: 1.96 ± 0.72 (P < 0.05) %
  Steatosis score: 1.3 ± 1.1
[6]; [10]
  Ballooning score: 1.8 ± 0.5
  Blood glucose: 463 ± 143
  Body weight: 26.1 ± 5.1
  Inflammation score: 2.4 ± 0.7
  Liver weight: 1.35 ± 0.28
  NAS score: 6.1 ± 1.1
  Sirius red %: 1.02 ± 0.48 (P < 0.05) %
  Steatosis score: 2.0 ± 0.5
[6]; [11]
  Blood glucose: 405 ± 134
  Body weight: 41.6 ± 8.9
  Liver weight: 3.04 ± 1.19 (P < 0.05)
  Sirius red %: 1.62 ± 0.57 (P < 0.05) %
  Tumor number: 4.5 ± 4.4
[6]; Week 20–30 Treatment, 50 mg/kg per day oral, 0–7 scale
  Tumor score: 2.25 ± 2.0 (P < 0.05)
[6]; late, oncogenic stage of the NASH model (abstract)
  reduction in the number and size of liver tumors: 50%
[6]; three NASH model studies, 50 mg/kg per day oral, sirius red
  fibrosis levels lower after CRV431 treatment compared with vehicle treatment: 37%–46%
[6]; treatment from weeks 20 to 30
  livers lacking tumors: 2 of 10
[6]; treatment from weeks 20 to 30, vs vehicle
  decrease of tumor burden (score of tumor number and size): 52%
[7]
  half-life (in words): relatively long CRV431 half-life that exceeded that of CsA
[8]
  fold higher levels in liver than in the blood: 5- to 15 fold
